Columns and labels:
Colletotrichum acutatum = experiment: Fungicidal effect test against fungi causing apple anthracnose; settings: 96 h, read-out: growth inhibition ratio
[1] = tested on: Erysiphe graminis f.sp.tritici; experiment: Control test of wheat powdery mildew disease (sprayed young wheat seedlings); format: in vivo; settings: Blumeria graminis, 144 h, 125 ppm by mass spray, six days after inoculation
Source text: [formula] […] Then, the drug liquid was sprayed onto young wheat seedlings cultivated in a nursery pot (variety “Chihoku”, one-to two-leaf stage), and then air-dried. Thereafter, conidiospores of fungi causing wheat powdery mildew disease (Erysiphe graminis f.sp.tritici) were sprinkled on the young wheat seedlings to inoculate them (treated area). As a control, the conidiospores of fungi causing wheat powdery mildew disease (Erysiphe graminis f.sp.tritici) were sprinkled on young wheat seedlings unsprayed with the drug liquid (untreated area). They were left still in a greenhouse at 20° C. Six days after inoculation, leaves of young wheat seedlings were visually observed, and the lesion area ratio was determined to calculate the control value in a similar manner to the previous test.

Botrytis cinerea [2] = experiment: Control test of cucumber gray mold (sprayed young cucumber seedlings); format: in vivo; settings: 96 h, four days after inoculation; for pest or weed control at 25 ppm: 25 ppm by mass spray; for pest or weed control at 125 ppm: 125 ppm by mass spray
Experimental: Then, the drug liquid was sprayed onto young cucumber seedlings cultivated in a nursery pot (variety “Jihai”-based, cotyledon stage), and then air-dried. […] They were left still in a moist room at 20° C. Four days after inoculation, leaves of the young cucumber seedlings were visually observed, and the control value was calculated from the lesion area ratio in accordance with the following equation. [formula]

Glomerella cingulata = experiment: Fungicidal effect test against fungi causing grape ripe rot disease; settings: Colletotrichum gloeosporioides, 72 h, read-out: growth inhibition ratio
Botrytis cinerea [3] = format: cell-based; settings: 120 h, 25 ppm by volume, Vogel medium, 20° C., five days, dark, read-out: growth inhibition ratio
Venturia inaequalis = experiment: Control test of apple scab disease (sprayed young apple seedlings); format: in vivo; settings: 125 ppm by mass spray, 12 to 14 days after inoculation
Experimental: [formula] […] Then, the drug liquid was sprayed onto young apple seedlings cultivated in a nursery pot (variety “Orin”, three-to four-leaf stage), and then air-dried. Thereafter, conidiospores of fungi causing apple scab disease (Venturia inaequalis) were inoculated thereon (treated area). As a control, the conidiospores were inoculated in a similar manner to the above on young apple seedlings unsprayed with the drug liquid (untreated area). They were left still at 20° C. in a moist room with light and dark cycles repeated every 12 hours. 12 Days to 14 days after inoculation, leaves of young apple seedlings were visually observed, and the control value was calculated from the lesion area ratio in accordance with the equation used in the control test of cucumber gray mold.

CC(=O)N(Cc1ccc(C)cc1C)NC(=O)c1cc(C)nnc1Oc1cccc(C2CC2)c1F [b-5, N′-acetyl-3-(3-cyclopropyl-2-fluorophenoxy)-N′-(2,4-dimethylbenzyl)-6-methylpyridazine-4-carbohydrazide]
≥ 75%: inhibition of growth at 25 ppm (Colletotrichum acutatum) | pest or weed control at 125 ppm [1] | pest or weed control at 25 ppm (Botrytis cinerea [2]) | pest or weed control at 125 ppm (Botrytis cinerea [2]) | inhibition of growth at 25 ppm (Glomerella cingulata) | inhibition of growth at 25 ppm (Botrytis cinerea [3]) | pest or weed control at 125 ppm (Venturia inaequalis)

CC(=O)N(Cc1ccc(C)cc1C)NC(=O)c1cc(C)ncc1Oc1cccc(C2CC2)c1F [b-9, N′-acetyl-5-(3-cyclopropyl-2-fluorophenoxy)-N′-(2,4-dimethylbenzyl)-2-methylisonicotinohydrazide]
≥ 75%: inhibition of growth at 25 ppm (Colletotrichum acutatum) | pest or weed control at 125 ppm [1] | pest or weed control at 25 ppm (Botrytis cinerea [2]) | pest or weed control at 125 ppm (Botrytis cinerea [2]) | inhibition of growth at 25 ppm (Glomerella cingulata) | inhibition of growth at 25 ppm (Botrytis cinerea [3]) | pest or weed control at 125 ppm (Venturia inaequalis)

Cc1ccc(CN(NC(=O)c2cc(C)nnc2Oc2cccc(C3CC3)c2F)C(=O)C(C)C)c(C)c1 [b-18]
≥ 75%: inhibition of growth at 25 ppm (Colletotrichum acutatum) | pest or weed control at 125 ppm [1] | pest or weed control at 125 ppm (Botrytis cinerea [2]) | inhibition of growth at 25 ppm (Glomerella cingulata) | inhibition of growth at 25 ppm (Botrytis cinerea [3]) | pest or weed control at 125 ppm (Venturia inaequalis)

CCCC(=O)N(Cc1ccc(C)cc1C)NC(=O)c1cc(C)nnc1Oc1cccc(C2CC2)c1F [b-20]
≥ 75%: inhibition of growth at 25 ppm (Colletotrichum acutatum) | pest or weed control at 125 ppm [1] | pest or weed control at 125 ppm (Botrytis cinerea [2]) | inhibition of growth at 25 ppm (Glomerella cingulata) | inhibition of growth at 25 ppm (Botrytis cinerea [3]) | pest or weed control at 125 ppm (Venturia inaequalis)

CCOC(=O)N(Cc1ccc(C)cc1C)NC(=O)c1cc(C)nnc1Oc1cccc(C2CC2)c1F [b-21]
≥ 75%: inhibition of growth at 25 ppm (Colletotrichum acutatum) | pest or weed control at 125 ppm [1] | pest or weed control at 25 ppm (Botrytis cinerea [2]) | pest or weed control at 125 ppm (Botrytis cinerea [2]) | inhibition of growth at 25 ppm (Glomerella cingulata) | inhibition of growth at 25 ppm (Botrytis cinerea [3]) | pest or weed control at 125 ppm (Venturia inaequalis)

Cc1ccc(CN(NC(=O)c2cc(C)nnc2Oc2cccc(C3CC3)c2F)C(=O)C2CC2)c(C)c1 [b-25]
≥ 75%: inhibition of growth at 25 ppm (Colletotrichum acutatum) | pest or weed control at 125 ppm [1] | pest or weed control at 25 ppm (Botrytis cinerea [2]) | pest or weed control at 125 ppm (Botrytis cinerea [2]) | inhibition of growth at 25 ppm (Glomerella cingulata) | inhibition of growth at 25 ppm (Botrytis cinerea [3]) | pest or weed control at 125 ppm (Venturia inaequalis)

COC(=O)N(Cc1ccc(C)c(C)c1)NC(=O)c1cc(C)nnc1Oc1cccc(C2CC2)c1F [b-29]
≥ 75%: inhibition of growth at 25 ppm (Colletotrichum acutatum) | pest or weed control at 125 ppm [1] | pest or weed control at 25 ppm (Botrytis cinerea [2]) | pest or weed control at 125 ppm (Botrytis cinerea [2]) | inhibition of growth at 25 ppm (Glomerella cingulata) | inhibition of growth at 25 ppm (Botrytis cinerea [3]) | pest or weed control at 125 ppm (Venturia inaequalis)

COCOc1ccc(CN(NC(=O)c2cc(C)nnc2Oc2cccc(C3CC3)c2F)C(=O)OC)c(C)c1 [b-30]
≥ 75%: inhibition of growth at 25 ppm (Colletotrichum acutatum) | pest or weed control at 125 ppm [1] | pest or weed control at 25 ppm (Botrytis cinerea [2]) | pest or weed control at 125 ppm (Botrytis cinerea [2]) | inhibition of growth at 25 ppm (Glomerella cingulata) | inhibition of growth at 25 ppm (Botrytis cinerea [3]) | pest or weed control at 125 ppm (Venturia inaequalis)

COC(=O)N(Cc1ccc(OC)cc1C)NC(=O)c1cc(C)nnc1Oc1cccc(C2CC2)c1F [b-44]
≥ 75%: inhibition of growth at 25 ppm (Colletotrichum acutatum) | pest or weed control at 125 ppm [1] | pest or weed control at 25 ppm (Botrytis cinerea [2]) | pest or weed control at 125 ppm (Botrytis cinerea [2]) | inhibition of growth at 25 ppm (Glomerella cingulata) | inhibition of growth at 25 ppm (Botrytis cinerea [3]) | pest or weed control at 125 ppm (Venturia inaequalis)

COC(=O)N(Cc1ccc(C)cc1C)NC(=O)c1cc(C)nnc1Oc1cccc(OC)c1F [b-52]
≥ 75%: inhibition of growth at 25 ppm (Colletotrichum acutatum) | pest or weed control at 125 ppm [1] | pest or weed control at 25 ppm (Botrytis cinerea [2]) | pest or weed control at 125 ppm (Botrytis cinerea [2]) | inhibition of growth at 25 ppm (Glomerella cingulata) | inhibition of growth at 25 ppm (Botrytis cinerea [3]) | pest or weed control at 125 ppm (Venturia inaequalis)

COC(=O)N(Cc1ccc(Cl)cc1Cl)NC(=O)c1cc(C)nnc1Oc1cccc(C2CC2)c1F [b-57]
≥ 75%: inhibition of growth at 25 ppm (Colletotrichum acutatum) | pest or weed control at 125 ppm [1] | pest or weed control at 125 ppm (Botrytis cinerea [2]) | inhibition of growth at 25 ppm (Glomerella cingulata) | inhibition of growth at 25 ppm (Botrytis cinerea [3]) | pest or weed control at 125 ppm (Venturia inaequalis)

COC(=O)N(CCc1ccc(Cl)cc1Cl)NC(=O)c1cc(C)nnc1Oc1cccc(C2CC2)c1F [b-65]
≥ 75%: inhibition of growth at 25 ppm (Colletotrichum acutatum) | pest or weed control at 125 ppm [1] | inhibition of growth at 25 ppm (Glomerella cingulata) | pest or weed control at 125 ppm (Venturia inaequalis)

CC(=S)N(Cc1ccc(C)cc1C)NC(=O)c1cc(C)nnc1Oc1cccc(C2CC2)c1F [b-66, 3-(3-Cyclopropyl-2-fluorophenoxy)-N′-(2,4-dimethylbenzyl)-N′-ethanethioyl-6-methylpyridazine-4-carbohydrazide]
≥ 75%: inhibition of growth at 25 ppm (Colletotrichum acutatum) | pest or weed control at 125 ppm [1] | pest or weed control at 25 ppm (Botrytis cinerea [2]) | pest or weed control at 125 ppm (Botrytis cinerea [2]) | inhibition of growth at 25 ppm (Glomerella cingulata) | inhibition of growth at 25 ppm (Botrytis cinerea [3]) | pest or weed control at 125 ppm (Venturia inaequalis)

COC(=O)N(Cc1ccc(C)cc1C)NC(=O)c1cc(C)nnc1Oc1cccc(Br)c1Cl [b-68]
≥ 75%: inhibition of growth at 25 ppm (Colletotrichum acutatum) | pest or weed control at 125 ppm [1] | pest or weed control at 125 ppm (Botrytis cinerea [2]) | inhibition of growth at 25 ppm (Glomerella cingulata) | inhibition of growth at 25 ppm (Botrytis cinerea [3]) | pest or weed control at 125 ppm (Venturia inaequalis)

COC(=O)N(Cc1ccc(C)cc1C)NC(=O)c1cc(Cl)nnc1Oc1ccc2c(c1)OCO2 [b-81]
≥ 75%: inhibition of growth at 25 ppm (Colletotrichum acutatum) | pest or weed control at 125 ppm [1] | pest or weed control at 125 ppm (Botrytis cinerea [2]) | inhibition of growth at 25 ppm (Glomerella cingulata) | inhibition of growth at 25 ppm (Botrytis cinerea [3]) | pest or weed control at 125 ppm (Venturia inaequalis)

COC(=O)N(Cc1ccc(OC)cc1OC)NC(=O)c1cc(C)nnc1Oc1cccc(C2CC2)c1F [b-83]
≥ 75%: inhibition of growth at 25 ppm (Colletotrichum acutatum) | pest or weed control at 125 ppm [1] | pest or weed control at 125 ppm (Botrytis cinerea [2]) | inhibition of growth at 25 ppm (Glomerella cingulata) | inhibition of growth at 25 ppm (Botrytis cinerea [3]) | pest or weed control at 125 ppm (Venturia inaequalis)

COC(=O)N(Cc1ccc(OC)cc1OC)NC(=O)c1cc(C)ncc1Oc1cccc(C2CC2)c1F [b-85]
≥ 75%: pest or weed control at 125 ppm [1] | pest or weed control at 25 ppm (Botrytis cinerea [2]) | pest or weed control at 125 ppm (Botrytis cinerea [2]) | inhibition of growth at 25 ppm (Glomerella cingulata) | inhibition of growth at 25 ppm (Botrytis cinerea [3]) | pest or weed control at 125 ppm (Venturia inaequalis)

COC(=O)N(Cc1ccc(OC)cc1OC)NC(=O)c1nc(C)ncc1Oc1cccc(C2CC2)c1F [b-86]
≥ 75%: pest or weed control at 125 ppm [1] | pest or weed control at 25 ppm (Botrytis cinerea [2]) | pest or weed control at 125 ppm (Botrytis cinerea [2]) | inhibition of growth at 25 ppm (Glomerella cingulata) | inhibition of growth at 25 ppm (Botrytis cinerea [3]) | pest or weed control at 125 ppm (Venturia inaequalis)

COC(=O)N(Cc1ccc(C)cc1C)NC(=O)c1c(Oc2cccc(Br)c2F)nnc2c1CCC2 [b-92, Methyl 2-(3-(3-bromo-2-fluorophenoxy)-6,7-dihydro-5H-cyclopenta[c]pyridazine-4-carbonyl)-1-(2,4-dimethylbenzyl)hydrazine-1-carboxylate]
≥ 75%: inhibition of growth at 25 ppm (Colletotrichum acutatum) | pest or weed control at 125 ppm [1] | pest or weed control at 25 ppm (Botrytis cinerea [2]) | pest or weed control at 125 ppm (Botrytis cinerea [2]) | inhibition of growth at 25 ppm (Glomerella cingulata) | inhibition of growth at 25 ppm (Botrytis cinerea [3]) | pest or weed control at 125 ppm (Venturia inaequalis)

COC(=O)N(Cc1ccc(OC)cc1)NC(=O)c1cc(C)nnc1Oc1cccc(C2CC2)c1F [b-100]
≥ 75%: inhibition of growth at 25 ppm (Colletotrichum acutatum) | pest or weed control at 125 ppm [1] | inhibition of growth at 25 ppm (Glomerella cingulata) | inhibition of growth at 25 ppm (Botrytis cinerea [3]) | pest or weed control at 125 ppm (Venturia inaequalis)

COC(=O)N(Cc1ccccc1)NC(=O)c1cc(C)nnc1Oc1cccc(C2CC2)c1F [b-102]
≥ 75%: inhibition of growth at 25 ppm (Colletotrichum acutatum) | pest or weed control at 125 ppm [1] | inhibition of growth at 25 ppm (Glomerella cingulata) | inhibition of growth at 25 ppm (Botrytis cinerea [3]) | pest or weed control at 125 ppm (Venturia inaequalis)

COC(=O)N(Cc1ccc(OC)cc1C)NC(=O)c1cc(C)ncc1Oc1cccc(C2CC2)c1F [b-104]
≥ 75%: inhibition of growth at 25 ppm (Colletotrichum acutatum) | pest or weed control at 125 ppm [1] | pest or weed control at 25 ppm (Botrytis cinerea [2]) | pest or weed control at 125 ppm (Botrytis cinerea [2]) | inhibition of growth at 25 ppm (Botrytis cinerea [3]) | pest or weed control at 125 ppm (Venturia inaequalis)

COC(=O)N(Cc1ccc2c(c1)OCO2)NC(=O)c1cc(C)nnc1Oc1cccc(C2CC2)c1F [b-110]
≥ 75%: inhibition of growth at 25 ppm (Colletotrichum acutatum) | pest or weed control at 125 ppm [1] | inhibition of growth at 25 ppm (Glomerella cingulata) | inhibition of growth at 25 ppm (Botrytis cinerea [3]) | pest or weed control at 125 ppm (Venturia inaequalis)

COC(=O)N(Cc1ccc(C)cc1C)NC(=O)c1cc(C)nnc1Oc1cccc(OC)c1 [b-123]
≥ 75%: inhibition of growth at 25 ppm (Colletotrichum acutatum) | pest or weed control at 125 ppm [1] | inhibition of growth at 25 ppm (Glomerella cingulata) | inhibition of growth at 25 ppm (Botrytis cinerea [3]) | pest or weed control at 125 ppm (Venturia inaequalis)

COC(=O)N(Cc1ccc(C)cc1C)NC(=O)c1cc(C)nnc1Oc1cccc(F)c1Cl [b-180]
≥ 75%: pest or weed control at 125 ppm [1] | inhibition of growth at 25 ppm (Botrytis cinerea [3]) | pest or weed control at 125 ppm (Venturia inaequalis)
